# Patent publication US20240277700A1, “COMPOSITIONS AND METHODS FOR TREATING AND PREVENTING INTERSTITIAL CYSTITIS” (Hista RX LLC, priority 2021, published 2024)
# What was measured:
# [1] = tested on: patient with interstitial cystitis; test: Example 2: case report, patient with chronic interstitial cystitis and IBS-diarrhea; conditions: person; before the combination
# [2] = tested on: patient with painful bladder syndrome; test: Example 3: case report, patient with chronic painful bladder syndrome; format: in vivo, human; conditions: person; prior treatment without the combination
# patients with IC = conditions: cited from earlier work
compound,measurement,setting,value
COc1ccc2nc([S@@+]([O-])Cc3ncc(C)c(OC)c3C)[nH]c2c1 [Esomeprazole],resolution of urologic and/or gastrointestinal conditions by previous medications,[1],without resolution
OCCOCCN1CCN(C(c2ccccc2)c2ccc(Cl)cc2)CC1 (centres unmarked) [Hydroxyzine],symptomatic relief by prior treatment,[2],insufficient
same,benefit in the treatment of IC,patients with IC; monotherapy,some limited benefit
CN/C(=N/CCSCc1nc[nH]c1C)NC#N [cimetidine],symptomatic relief of IC,"patients with IC; monotherapy 300 mg bid (600 mg daily) for one month, case series of 9 patients",effective
Sucralfate,resolution of urologic and/or gastrointestinal conditions by previous medications,[1],without resolution
